Where a name gives a salt, the structure may show the parent alone.
Molecular target: T1, recombinant human MCHR1-receptors (Homo sapiens, UniProt Q99705)
T1 construct: expressed in transfected cells
Assay: MCHR filter binding assay (competition binding)
Conditions: membranes from CHO-K1 cells expressing human MCHR1; 0.2 nM [Phe13,[125I]Tyr19]-MCH; read-out: IC50 (nM), in vitro activity (binding assay)
Method: MCHR Filter Binding Assay
Competition binding assays were performed using membranes from CHO-K1 cells stably expressing the recombinant human MCHR1-receptors. Binding reactions (90 μl, final volume) were carried out at rt by incubating 2.8 μg membranes with 0.2 nM [Phe^13,[^125I]Tyr^19]-MCH (PerkinElmer) in the absence or presence of various concentrations of competing ligands in binding buffer (50 mM HEPES, 2.5 mM CaCl2, 0.05 mM BSA, 1 mM phenanthroline, 0.03 mM Triton X-100). [Phe^13,[^125I]Tyr^19]-MCH was added 15 min following the addition of unlabeled competing ligands, and the reactions incubated for a 1 h period. The reactions were terminated by rapid filtration over pretreated 96-well filter plates (Millipore; MultiScreen 0.65 μm GFB filter plates). Filter Plates were treated for 12 h at 4° C. with a 0.5% polyvinylpyrrolidone solution containing 1% BSA and 0.1% Tween 20, and then washed with an ice-cold solution of 10 mM Tris, pH 7.5 (5×200 μl). The plates were drained following a 5 min incubation with binding buffer (200 μl) at rt. Following termination of the binding reactions, the filters were washed with ice-cold binding buffer (4×200 μl). The filter plates were air dried for 30 min, scintillation cocktail (60 μl) added to each well and radioactivity bound to the plates was determined using a Micro-beta plate reader (Wallace/PerkinElmer).

T1 sequence (Q99705 whole entry): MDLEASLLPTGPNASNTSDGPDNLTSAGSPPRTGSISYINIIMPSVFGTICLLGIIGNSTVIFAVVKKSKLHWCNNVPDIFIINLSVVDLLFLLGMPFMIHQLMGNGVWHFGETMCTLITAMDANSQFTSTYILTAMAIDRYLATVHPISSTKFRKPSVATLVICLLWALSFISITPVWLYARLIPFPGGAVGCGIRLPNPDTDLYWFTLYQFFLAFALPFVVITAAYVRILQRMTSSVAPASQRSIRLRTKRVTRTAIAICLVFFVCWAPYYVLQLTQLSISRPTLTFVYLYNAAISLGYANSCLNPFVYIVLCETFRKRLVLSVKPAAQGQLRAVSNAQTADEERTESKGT

Structure (SMILES)	IC50 [nM]
CSC1CN(C[C@@H]2Cc3ccc(NC(=O)C(C)C)cc3C2)CCC1n1c(C)nc2cc(C)ccc21 (stereo partly drawn) [Example 22, N-{(R)-2-[4-(2,5-Dimethyl-benzoimidazol-1-yl)-3-methylsulfanyl-piperidin-1-ylmethyl]-indan-5-yl}-isobutyramide; dihydrochloride]	20 to 200
Cc1ccc2c(c1)nc(CC(C)(C)O)n2C1CCN(CC2Cc3ccc(F)cc3C2)CC1 (stereo not shown) [Example 23, 1-{1-[1-(5-Fluoro-indan-2-ylmethyl)-piperidin-4-yl]-5-methyl-1H-benzoimidazol-2-yl}-2-methyl-propan-2-ol; dihydrochloride]	20 to 200
CO[C@@H]1CN(CC2Cc3ccccc3C2)CC[C@H]1n1c(C(C)C)nc2cc(C)ccc21 [Example 24, 1-((3R,4R)-1-Indan-2-ylmethyl-3-methoxy-piperidin-4-yl)-2-isopropyl-5-methyl-1H-benzoimidazole]	20 to 200
CCC(=O)Nc1ccc2c(c1)C[C@H](CN1CC[C@@H](n3c(C)nc4cc(F)ccc43)[C@H](OC)C1)C2 [Example 25, N-{(R)-2-[(3R,4R)-4-(5-Fluoro-2-methyl-benzoimidazol-1-yl)-3-methoxy-piperidin-1-ylmethyl]-indan-5-yl}-propionamide; dihydrochloride]	20 to 200
CO[C@@H]1CN(C[C@H]2Cc3ccc(Br)cc3C2)CC[C@H]1n1c(C(C)(C)C)nc2cc(C)ccc21 [Example 26, 1-[(3R,4R)-1-((S)-5-Bromo-indan-2-ylmethyl)-3-methoxy-piperidin-4-yl]-2-tert-butyl-5-methyl-1H-benzoimidazole]	20 to 200
Cc1ccc2c(c1)nc(C)n2C1CCN(C[C@@H]2Cc3ccc(NC(=O)C(C)C)cc3C2)CC1O (stereo partly drawn) [Example 27, N-{(R)-2-[4-(2,5-Dimethyl-benzoimidazol-1-yl)-3-hydroxy-piperidin-1-ylmethyl]-indan-5-yl}-isobutyramide; dihydrochloride]	200 to 5000
CO[C@@H]1CN(C[C@@H]2Cc3ccc(NC(=O)C4CC4)cc3C2)CC[C@H]1n1c(C)nc2cc(F)ccc21 [Example 28, Cyclopropanecarboxylic acid {(R)-2-[(3R,4R)-4-(5-fluoro-2-methyl-benzoimidazol-1-yl)-3-methoxy-piperidin-1-ylmethyl]-indan-5-yl}-amide; dihydrochloride]	200 to 5000
CO[C@H]1CN(CC2Cc3ccccc3C2)CC[C@@H]1n1c(C(C)C)nc2cc(C)ccc21 [Example 29, 1-((3S,4S)-1-Indan-2-ylmethyl-3-methoxy-piperidin-4-yl)-2-isopropyl-5-methyl-1H-benzoimidazole]	200 to 5000
Cc1ccc2c(c1)nc(Cl)n2C1CCN(C[C@@H]2Cc3ccc(NC(=O)C4CC4)cc3C2)CC1 [Example 30, Cyclopropanecarboxylic acid {(R)-2-[4-(2-chloro-5-methyl-benzoimidazol-1-yl)-piperidin-1-ylmethyl]-indan-5-yl}-amide; dihydrochloride]	200 to 5000
Cc1ccc2c(c1)nc(Cl)n2C1CCN(C[C@@H]2Cc3ccc(N)cc3C2)CC1 [Example 31, (R)-2-[4-(2-Chloro-5-methyl-benzoimidazol-1-yl)-piperidin-1-ylmethyl]-indan-5-ylamine; dihydrochloride]	200 to 5000
Cc1ccc2c(c1)nc(-c1ccccc1)n2C1CCN(C[C@@H]2Cc3ccc(NC(=O)C(C)C)cc3C2)CC1 [Example 33, N-{(R)-2-[4-(5-Methyl-2-phenyl-benzoimidazol-1-yl)-piperidin-1-ylmethyl]-indan-5-yl}-isobutyramide]	< 20
CO[C@H]1CN(C[C@@H]2Cc3ccc(NC(=O)C(C)C)cc3C2)CC[C@@H]1n1c(C)nc2cc(C)ccc21 [Example 34, N-{(R)-2-[(3S,4S)-4-(2,5-Dimethyl-benzoimidazol-1-yl)-3-methoxy-piperidin-1-ylmethyl]-indan-5-yl}-isobutyramide]	< 20
Cc1ccc2c(c1)nc(C)n2C1CCN(C[C@@H]2Cc3ccc(NC(=O)C(C)C)cc3C2)CC1 [Example 35, N-{(R)-2-[4-(2,5-Dimethyl-benzoimidazol-1-yl)-piperidin-1-ylmethyl]-indan-5-yl}-isobutyramide]	< 20

Source: patent US7803816B2, “MCH receptor antagonists” (Hoffmann-La Roche Inc., priority 2005, dated 2010)
